# Test results: PMC6818106, “Synthesis of thiazolidin-4-ones and thiazinan-4-ones from 1-(2-aminoethyl)pyrrolidine as acetylcholinesterase inhibitors” (Journal of Enzyme Inhibition and Medicinal Chemistry, 2019)
# How the values were obtained:
# [1] = target: T1, AChE (Rattus norvegicus, UniProt P37136); assay: In vitro AChE activity (Ellman method) in cerebral cortex homogenate; type: biochemical; details: for IC50: rat cerebral cortex homogenate, calculated with GraphPad Prism 5, read-out: IC50 of AChE inhibition, Cortex; for concentration from which AChE activity was inhibited, cerebral cortex: vs control group (water and methanol), p < .05, tested 0.1-250 μM
# T1 construct: the use of crude homogenised from rat’s brain structures, as used in the present work; from tissue; host or cells: Wistar rat cerebral cortex, homogenate supernatant
# T1 sequence (P37136 32-614): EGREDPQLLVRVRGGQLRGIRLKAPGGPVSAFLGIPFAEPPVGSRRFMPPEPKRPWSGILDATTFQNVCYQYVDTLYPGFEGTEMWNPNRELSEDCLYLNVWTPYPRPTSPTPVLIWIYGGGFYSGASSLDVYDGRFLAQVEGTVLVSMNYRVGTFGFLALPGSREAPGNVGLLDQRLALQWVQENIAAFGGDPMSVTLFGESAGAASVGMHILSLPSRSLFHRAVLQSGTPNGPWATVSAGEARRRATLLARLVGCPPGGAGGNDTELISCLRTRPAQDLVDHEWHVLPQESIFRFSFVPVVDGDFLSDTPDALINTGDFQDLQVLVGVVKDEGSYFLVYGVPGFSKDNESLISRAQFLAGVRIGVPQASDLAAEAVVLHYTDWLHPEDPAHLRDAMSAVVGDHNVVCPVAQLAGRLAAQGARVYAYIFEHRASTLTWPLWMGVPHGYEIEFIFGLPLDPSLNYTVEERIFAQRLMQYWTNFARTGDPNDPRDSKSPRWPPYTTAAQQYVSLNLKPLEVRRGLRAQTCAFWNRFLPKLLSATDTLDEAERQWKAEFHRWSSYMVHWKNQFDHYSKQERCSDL
# Method: (§1) In vitro was evaluated the potential inhibition of thiazolidin-4-ones and thiazinan-4-ones against AChE activity enzyme in hippocampus and cerebral cortex of Wistar rats (60 days, 250–300 g), since it is well described that these two structures in the brain play an important role in memory. All procedures involving the animals were approved by the Committee of Ethics in Animal Experimentation of UFPel (CEEA 9219). The animals were submitted to euthanasia and the brain was removed. Subsequently, the hippocampus and cerebral cortex were separated and homogenised in buffer Tris HCl 10 mM (pH 7.4). The homogenates were centrifuged at 1800 rpm for 10 min and the supernatant was used for in vitro analyses of the potential inhibitory effect of thiazolidin-4-one and thiazinan-4-ones on AChE activity.
# (§2) The compounds were solubilised in methanol and prepared in different concentrations (0.1, 0.5, 1, 5, 10, 25, 50, 100 and 250 μM). […] The thiocholine, in turn, reacts with DTNB to form a chromophore, 5-thio-2-nitrobenzoic, which is quantified spectrophotometrically at 412 nm. The enzymatic activity was expressed in μmols of AcSCh/h/mg protein. Proteins were determined by the method of Bradford[29] using the Coomassie Blue reagent. Bovine albumin was used as standard.
# [2] = target: T1, AChE; assay: In vitro AChE activity (Ellman method) in hippocampus homogenate; type: biochemical; details: for IC50: rat hippocampus homogenate, calculated with GraphPad Prism 5, read-out: IC50 of AChE inhibition, Hippocampus; for concentration from which AChE activity was inhibited, hippocampus: vs control group (water and methanol), p < .05, tested 0.1-250 μM
# Method: as §1, §2
# [3] = system: cortical astrocytes; assay: Cytotoxicity in cortical astrocyte primary culture (MTT cell viability); type: cell-based; details: 100 μM, 48 h and 72 h; p > .05
# Method: In the evaluation of the cytotoxicity of the thiazolidin-4-ones and thiazinan-4-ones in astrocytes, Wistar rats (1–2 days) were used to obtain cortical astrocytes, which were cultured in 96-well plates (3x10^4 per well) and maintained with Dulbecco’s modified Eagle’s medium (DMEM) supplemented with 10% Bovine Foetal Serum (FBS)[30]. Cells were maintained under standard conditions (5% CO2, 37 °C and humidified atmosphere) for 15 days, receiving periodic exchange of culture medium until treatments were received. After time and maturation, the astrocytes were treated with the compounds at the concentration of 100 μM. Cells were exposed to this concentration for 48 h and 72 h. After treatment, cell viability was analysed by the test of 3-(4,5-dimethylthiazol-2yl)-2,5-diphenyltetrazolium bromide (MTT). This method consists of measuring the number of cells with the metabolically active mitochondria, based on the reduction of the tetrazolium salt to the formazan crystals. The absorbance was determined on a microplate reader at 492 nm. The absorbance is linearly proportional to the number of cells with active mitochondria, indicating how many viable cells remained at the end of the treatment.
Compound,IC50 [1] [µM],"concentration from which AChE activity was inhibited, cerebral cortex [1] [µM]",IC50 [2] [µM],"concentration from which AChE activity was inhibited, hippocampus [2] [µM]",cell viability of astrocyte primary culture (MTT) [3],"AChE inhibition activity (qualitative) ([2]; disubstituted aryl, tissue not stated in the sentence (follows hippocampus results))"
"O=C1CCSC(c2cccc([N+](=O)[O-])c2)N1CCN1CCCC1 (centres unmarked) [6i, 2-(3-nitrophenyl)-3-(2-(pyrrolidin-1-yl)ethyl)-1,3-thiazinan-4-one]",50.6,≥ 50,29.4,≥ 50,–,–
"COc1ccc(C2SCCC(=O)N2CCN2CCCC2)cc1 (centres unmarked) [6n, 2-(4-methoxyphenyl)-3-(2-(pyrrolidin-1-yl)ethyl)-1,3-thiazinan-4-one]",22.2,≥ 5,17,–,did not change de cell viability,–
"O=C1CSC(c2ccc([N+](=O)[O-])cc2)N1CCN1CCCC1 (centres unmarked) [5j, 2-(4-nitrophenyl)-3-(2-(pyrrolidin-1-yl)ethyl)thiazolidin-4-one]",28.1,≥ 1,8.68,≥ 1,did not change de cell viability,–
"O=C1CSC(c2ccccc2)N1CCN1CCCC1 (centres unmarked) [5a, 2-phenyl-3-(2-(pyrrolidin-1-yl)ethyl)thiazolidin-4-one]",> 250,–,30.9,–,–,–
"O=C1CCSC(c2ccc([N+](=O)[O-])cc2)N1CCN1CCCC1 (centres unmarked) [6j, 2-(4-nitrophenyl)-3-(2-(pyrrolidin-1-yl)ethyl)-1,3-thiazinan-4-one]",40.1,≥ 10,9.32,≥ 1,did not change de cell viability,–
"Cc1ccc(C2SCCC(=O)N2CCN2CCCC2)cc1 (centres unmarked) [6k, 3-(2-(pyrrolidin-1-yl)ethyl)-2-(p-tolyl)-1,3-thiazinan-4-one]",6.83,≥ 5,4.46,≥ 1,did not change de cell viability,–
"O=C1CSC(c2cccc(O)c2)N1CCN1CCCC1 (centres unmarked) [5o, 2-(3-hydroxyphenyl)-3-(2-(pyrrolidin-1-yl)ethyl)thiazolidin-4-one]",27.6,–,30.6,–,–,–
"O=C1CCSC(c2ccccc2)N1CCN1CCCC1 (centres unmarked) [6a, 2-phenyl-3-(2-(pyrrolidin-1-yl)ethyl)-1,3-thiazinan-4-one]",7.4,≥ 5,5.2,≥ 1,did not change de cell viability,–
"2-(2-methoxyphenyl)-3-(2-(pyrrolidin-1-yl)ethyl)-1,3-thiazinan-4-one [6l]",> 250,≥ 100,84.9,≥ 100,–,–
"O=C1CSC(c2ccccc2[N+](=O)[O-])N1CCN1CCCC1 (centres unmarked) [5h, 2-(2-nitrophenyl)-3-(2-(pyrrolidin-1-yl)ethyl)thiazolidin-4-one]",> 250,–,105,–,–,–
"O=C1CCSC(c2cccc(O)c2)N1CCN1CCCC1 (centres unmarked) [6o, 2-(3-hydroxyphenyl)-3-(2-(pyrrolidin-1-yl)ethyl)-1,3-thiazinan-4-one]",25.7,≥ 25,69.6,–,–,–
"Cc1ccc(C2SCC(=O)N2CCN2CCCC2)cc1 (centres unmarked) [5k, 3-(2-(pyrrolidin-1-yl)ethyl)-2-p-tolylthiazolidin-4-one]",> 250,–,> 250,–,–,–
"COc1ccc(C2SCC(=O)N2CCN2CCCC2)cc1 (centres unmarked) [5n, 2-(4-methoxyphenyl)-3-(2-(pyrrolidin-1-yl)ethyl)thiazolidin-4-one]",> 250,–,> 250,–,–,–
"O=C1CCSC(c2ccc(Cl)cc2)N1CCN1CCCC1 (centres unmarked) [6g, 2-(4-chlorophenyl)-3-(2-(pyrrolidin-1-yl)ethyl)-1,3-thiazinan-4-one]",57.2,–,50.5,–,–,–
"COc1cccc(C2SCCC(=O)N2CCN2CCCC2)c1 (centres unmarked) [6m, 2-(3-methoxyphenyl)-3-(2-(pyrrolidin-1-yl)ethyl)-1,3-thiazinan-4-one]",24,≥ 25,90.3,–,–,–
"O=C1CSC(c2ccc(Cl)cc2)N1CCN1CCCC1 (centres unmarked) [5g, 2-(4-chlorophenyl)-3-(2-(pyrrolidin-1-yl)ethyl)thiazolidin-4-one]",> 250,–,> 250,–,–,–
"O=C1CSC(c2cccc([N+](=O)[O-])c2)N1CCN1CCCC1 (centres unmarked) [5i, 2-(3-nitrophenyl)-3-(2-(pyrrolidin-1-yl)ethyl)thiazolidin-4-one]",10.2,≥ 10,81.6,≥ 10,–,–
"O=C1CCSC(c2ccccc2[N+](=O)[O-])N1CCN1CCCC1 (centres unmarked) [6h, 2-(2-nitrophenyl)-3-(2-(pyrrolidin-1-yl)ethyl)-1,3-thiazinan-4-one]",11,≥ 1,92.8,5,did not change de cell viability,–
"COc1cccc(C2SCCC(=O)N2CCN2CCCC2)c1OC (centres unmarked) [6p, 2-(2,3-dimethoxyphenyl)-3-(2-(pyrrolidin-1-yl)ethyl)-1,3-thiazinan-4-one]",–,–,–,–,–,decrease in activity
